A short description of this experiment: Remineralizing properties on EDTA-etched dentin blocks soaked in simulated body fluid (SEM/EDX). To be noted: 15 μL applied on dentin etched by 10% EDTA; soaked in simulated body fluid for 7 d; PDDAF 280,000 ppm, SDF 38%. As to the method:
The volume of both solutions applied on dentin surface is 15 μL.
The remineralizing properties of 280,000 ppm cationic polymer fluoride solution was examined. […] Dentin blocks with the dimensions of 4 mm×4 mm×2 mm were prepared (FIGS. 8C-8D, 9C-9D).

For silver diamine fluoride [38% SDF], the “minerals formed on re-mineralized dentin surface (EDX)” value was “formation of mineral calcium phosphate and silver chloride”.

These data come from US20250026880A1, “POLY(DIALLYLDIMETHYLAMMONIUM) FLUORIDE - A NEW ANTI-CARIES AND REMINERALIZING AGENT” (The University of Hong Kong, priority 2023, published 2025).
